# How the values were obtained:
# [1] = tested on: acetylation of histone H3; test: Western blot of acetylated histones in bone marrow after HDACi administration (HDACi activity); type: in vivo, mouse; conditions: 10 h after first dose and 5 h after second dose, s.c., TSA 0.5 + 0.5 mg/kg, VPA 600 + 300 mg/kg
# Method: […] or spleens were harvested at 10 h.
# TSA is not selective and is expected to increase acetylation of histones non-specifically. FIG. 1 is a graph showing the acetylation of histone H3 relative to a beta-actin control in test samples. […] Bars indicate individual mice.
# [2] = tested on: BALB/c mice; test: Lethality / survival after total-body irradiation (TBI); type: in vivo
# Method: All studies were performed with prior approval and in accordance with institutional and national standards of animal care. The studies were approved by an Institutional Animal Care and Use Committee (“IACUC”) and were performed in an accredited AAALAC facility. Male BALB/c mice (Charles River Laboratories) 8 to 10 weeks old were allowed to acclimate for 1 week prior to the start of the study. Mice were maintained in environment-controlled (temperature and lighting) animal facilities, provided food and water ad libitum, and randomly assigned to experimental groups.
# TBI was delivered using a 185 TBq (5000 Ci) ^137Cs source (Mark I, J. L. Shepherd and Associates, San Fernando, Calif.). Doses ranged from sublethal exposures of 5.5 Gy to lethal exposures of 6.5 Gy and a supralethal exposure of 7.0 Gy. The dose rate was approximately 1 Gy per minute.
# Survival was measured in mice after TBI with and without HDACi. Groups of mice were exposed to 6.5 or 7.0 Gy alone or in combination with HDACi, as described above. Survival was defined as the time from irradiation to the time of euthanasia, which occurred when animals had lost 20% or more of their body weight.
smiles,measurement,setting,value
"CC(/C=C/C(=O)NO)=C\[C@@H](C)C(=O)c1ccc(N(C)C)cc1 [TSA, trichostatin-A]",increase in acetylated form of histone H3 relative to the beta-actin control,[1],three to four-fold increase
same,survival,"[2]; 7 Gy TBI, TSA 0.5 mg/kg 24 h before TBI (FIG. 5)",increased survival
same,lethality (time for mice to lose 20% or more of their weight),[2]; after TBI,reduce lethality in a dose-dependent manner

# Reference: US20100256233A1, “SYSTEMS, METHODS AND COMPOSITIONS FOR REDUCTION OF INJURY FROM RADIATION EXPOSURE” (priority 2007, published 2010)
